Reference: patent EP2698385A1, “Detection of synthetic cannabinoids” (priority 2012, dated 2014)

Assays:
[1] = system: antibodies raised to Immunogens I & II; test: Competitive ELISA (Example 19), sensitivity and cross-reactivity of selected molecules, one result for both antibodies; format: binding, sheep; settings: for binding / cross-reaction with antibodies raised from Immunogens I and II: result in words; for % CR / IC50: first Table 3, Standard Conc 750.00 ng/ml
Procedure: (§1) Aqueous solutions of the immunogens prepared in examples 5 and 13 were formulated with Freund's Complete Adjuvant (FCA) to form emulsions consisting of 2mg/ml Immunogen I and 2mg/ml of Immunogen II in 50%(v/v) FCA. Three sheep were immunised with each emulsion (1° immunisations), 0.25ml being intramuscularly injected at four sites in the rump of each animal. Subsequent immunisations (boosts 2-8) contained 1mg/ml Immunogen I and 1mg/ml Immunogen II. All boosts were emulsified in 50%(v/v) Freund's Incomplete Adjuvant (FIA) and administered to the appropriate sheep in the same manner as the 1° immunisations, at monthly intervals. Blood sampling took place 7-14 days after each boost. Each sample was processed to produce antiserum, which was further purified by caprylic acid and ammonium sulphate precipitation to yield an immunoglobulin (Ig) fraction. The Ig fraction was evaluated by competitive ELISA microtiter plate assay, as described in example 19 below.
(§2) Example 19: Development of competitive ELISA for JWH synthetic cannabinoids and metabolites. • (a) The wells of an enhanced binding 96 well polystyrene microtiter plate were coated with the Ig fraction of the antiserum raised to Immunogen I (Hapten A-BTG - example 5) and diluted in 10mM Tris, pH8.5 (125µl/well). The appropriate antibody coating concentration was determined using standard ELISA checkerboard techniques. The plate was incubated for 2 hours at 37°C, washed 4 times over a 10-minute period with Tris buffered saline containing Tween 20 (TBST) and tapped dry. Standard solutions of JWH synthetic cannabinoids, metabolites and selected molecules were prepared in TBST and 50µl of each was added to the appropriate wells. 75µl of conjugate (Hapten A-HRP) diluted in Tris buffer containing EDTA, D-mannitol, sucrose, thimerosal and BSA, was added to each of the wells. The appropriate dilution of conjugate was also determined using standard ELISA checkerboard techniques. The plate was incubated at 25°C for 1 hour. The excess unbound conjugate was removed by washing 6 times over a 10-minute period with TBST and tapped dry. 125µl of tetramethylbenzedine (TMB) substrate solution was added to each well of the plate that was then incubated for 15-20 minutes in the dark at room temperature. The reaction was terminated by addition of 125µl of 0.2M sulphuric acid to each well. The absorbance was then measured at 450nm using a microtiter plate reader. Employing each series of standards, calibration curves were generated and these were used to determine the specificity of the immunoassay for the JWH synthetic cannabinoids, metabolites and selected molecules. The results of this study are presented in Tables 1 to 3, cross-reactivity being calculated according to the following formula: %CR = […] /IC50,CR X 100 [formula] Where %CR is the percentage cross-reactivity, IC50, YWH-018 is the concentration of JWH-018 that causes 50% displacement of signal and IC50, CR is the concentration of JWH synthetic cannabinoid/metabolite/selected molecule that causes 50% displacement of signal.
Table 2: Data generated from a competitive microtiter plate assay for JWH synthetic cannabinoids and metabolites, employing antiserum raised to Immunogen I (Hapten A-BTG) and conjugate (Hapten A-HRP) as detection reagent. • (c) The resulting competitive ELISA for synthetic cannabinoids and metabolites was further employed to analyse urine and serum samples from 20 patients (Table 3). • (d) The resulting competitive ELISA for synthetic cannabinoids and metabolites was also employed to test for the 5-fluoropentyl derivative of JWH-018, (1-(5-fluoropentyl)indol-3yl (1-naphthyl) methanone (Table 4).

[2] = system: Antibody to Immunogen VIII; format: binding, sheep; settings: Cross-reactants at 100 ng/ml; Antibody to Immunogen VIII
[3] = system: Antibody to Immunogen VII; format: binding, sheep; settings: Cross-reactants at 100 ng/ml; Antibody to Immunogen VII
[4] = system: Antibody to Immunogen IV; format: binding, sheep; settings: Cross-reactants at 100 ng/ml; Antibody to Immunogen IV
[5] = system: Antibody to Immunogen I; format: binding, sheep; settings: Cross-reactants at 100 ng/ml; Antibody to Immunogen I
In short: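 Sheep anti-Immunogen I IgG coated on plates, then JWH-018 standards (0–40 ng/ml) competed with hapten-HRP conjugate for 1 h at 25°C. TMB read-out at 450 nm, 4-parameter fit. IC50 is the standard concentration giving 50% B/B0; cross-reactivity of related cannabinoids taken from the calibration curves.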

[6] = system: antiserum raised to Immunogen II (Hapten B-BTG); test: Competitive ELISA microtiter plate assay (Example 19), antiserum raised to Immunogen II, Hapten A-HRP conjugate as detection reagent; format: binding, sheep; settings: first Table 4, Immunogen II
Procedure: as §1, §2
Table 1: Data generated from a competitive microtiter plate assay for JWH synthetic cannabinoids and metabolites, employing antiserum raised to Immunogen II (Hapten B-BTG) and conjugate (Hapten A-HRP) as detection reagent. (b) In a similar manner to that described in Example 19(a), the wells of a 96 well microtiter plate were coated with the Ig fraction of the antiserum raised to Immunogen II ([…]). Conjugate (Hapten A-HRP) was employed as a detection reagent.

[7] = molecular target: CB1 receptor (Homo sapiens, UniProt P21554); settings: result in words; detailed in US6900236; cited from earlier work
[8] = system: antiserum raised to Immunogen I (Hapten A-BTG); test: Competitive ELISA microtiter plate assay (Example 19), antiserum raised to Immunogen I, Hapten A-HRP conjugate as detection reagent; format: binding, sheep; settings: first Table 4, Immunogen I
Procedure: as §1, §2
Table 1: Data generated from a competitive microtiter plate assay for JWH synthetic cannabinoids and metabolites, employing antiserum raised to Immunogen II (Hapten B-BTG) and conjugate (Hapten A-HRP) as detection reagent. (b) In a similar manner to that described in Example 19(a), the wells of a 96 well microtiter plate were coated with the Ig fraction of the antiserum raised to Immunogen II ([…]). Conjugate (Hapten A-HRP) was employed as a detection reagent. […]

Chain of CB1 receptor (P21554 whole entry): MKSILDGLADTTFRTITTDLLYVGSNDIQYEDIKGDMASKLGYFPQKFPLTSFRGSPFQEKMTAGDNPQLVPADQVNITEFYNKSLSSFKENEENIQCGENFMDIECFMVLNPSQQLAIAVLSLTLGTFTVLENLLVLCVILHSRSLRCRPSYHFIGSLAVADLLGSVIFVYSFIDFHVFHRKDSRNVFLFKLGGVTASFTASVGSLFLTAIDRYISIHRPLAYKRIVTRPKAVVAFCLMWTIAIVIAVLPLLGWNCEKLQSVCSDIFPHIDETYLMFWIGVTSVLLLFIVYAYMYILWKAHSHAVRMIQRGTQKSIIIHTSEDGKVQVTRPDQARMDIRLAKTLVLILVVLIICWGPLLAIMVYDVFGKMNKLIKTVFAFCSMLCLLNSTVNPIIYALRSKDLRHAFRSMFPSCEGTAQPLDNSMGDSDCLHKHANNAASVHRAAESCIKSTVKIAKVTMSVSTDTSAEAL

Row | SMILES | % CR [1] [%] | IC50 [1] [ng/mL] | %B/B0 [2] [%] | %B/B0 [3] [%] | %B/B0 [4] [%] | other results
1 | CCn1cc(C(=O)c2cccc3ccccc23)c2ccccc21 [JWH-071] | – | – | – | – | – | binding / cross-reaction with antibodies raised from Immunogens I and II [1]: bind
2 | CCCCCc1cc(O)c2c(c1)OC(C)(C)[C@@H]1CCC(C)=C[C@@H]21 [Delta 9 THC] | < 0.28 | > 750.00 | 96.10 | 96.76 | 93.62 | –
3 | CCCCCc1cc(O)c2c(c1)OC(C)(C)[C@@H]1CCC(CO)=C[C@@H]21 [11-Hydroxy-δ-9-THC] | < 0.28 | > 750.00 | – | – | – | –
4 | CCCCCc1cc(O)c2c(c1)OC(C)(C)c1ccc(C)cc1-2 [Cannabinol] | < 0.28 | > 750.00 | 94.03 | 95.43 | 94.74 | –
5 | COc1cccc2[nH]cc(CCN(C)C)c12 [4-Methoxypsilocin] | < 0.28 | > 750.00 | – | – | – | –
6 | CCCCCn1cc(C(=O)O)c2ccccc21 [3-Carboxy-N-pentyl-1H -indole, 3-carboxy-1-pentyl-1H-indole] | < 0.28 | > 750.00 | – | – | – | –
7 | OCCc1c[nH]c2ccc(O)cc12 [5-hydroxytryptophol] | < 0.28 | > 750.00 | 102.93 | 98.45 | 94.51 | –
8 | O=C(O)Cc1c[nH]c2ccc(O)cc12 [5-hydroxyindole-3-acetic acid (5-HIAA), 5-hydroxyindole-3-acetic acid] | < 0.28 | > 750.00 | 108.24 | 99.46 | 96.61 | –
9 | NCCc1c[nH]c2ccc(O)cc12 [Serotonin] | < 0.28 | > 750.00 | – | – | – | –
10 | O=C(O)c1c[nH]c2ccccc12 [Indole-3-carboxylic Acid] | < 0.28 | > 750.00 | 96.28 | 96.90 | 93.42 | binding / cross-reaction with antibodies raised from Immunogens I and II [1]: do not cross-react
11 | CCCCCCC(C)(C)c1ccc([C@H]2CCC[C@@H](O)C2)c(O)c1 (racemic) [CP-49,497-C7 ((+-) CP 47,497), CP 47,497] | < 0.28 | > 750.00 | 86.95 | 94.23 | 96.84 | %B/B0 [5]: 101.20%
12 | O=C(c1cccc2ccccc12)c1cn(CCCCCF)c2ccccc12 [5-Fluoropentyl derivative, 1-(5-Fluoropentyl)indol-3-yl (1-naphthyl) methanone] | – | – | – | – | – | IC50 [6]: 0.22 ng/mL; % Cross-reactivity ([6]; JWH-018 = 100): 908.00%; binding to the CB1 receptor [7]: known to bind; IC50 [8]: 0.02 ng/mL; % Cross-reactivity ([8]; JWH-018 = 100): 11500.00%; binding / cross-reaction with antibodies raised from Immunogens I and II [1]: binds
